Format: physicochemical
Text: The solvent will be used in proportion with the concentration of the compound I and its solubility in this solvent. […] It will be sought to have the lowest possible volume. The vehicle makes up the difference to 100%.

## N#Cc1nn(-c2c(Cl)cc(C(F)(F)F)cc2Cl)c(N)c1[S+]([O-])C(F)(F)F (stereo not shown) [fipronil, 1-[2,6—Cl2-4—CF3 phenyl]-3—CN-4-[SO-CF3]-5—NH2 pyrazole]
  Solubility: 4.3 % m/V

Reference: patent US20070293446A1, “Compositions comprising C-13 alkoxyether macrolide compounds and phenylpyrazole compounds” (priority 1996, published 2007)
